Data taken from patent US11999727B2 (Tango Therapeutics, Inc., priority 2020, dated 2024).
Like-named read-outs stand apart in the source and are kept apart here.

Columns and labels:
PRMT5 [1] = biological target: T1, PRMT5 (Homo sapiens, UniProt O14744); test: PRMT5 biochemical IC50 assay with SAM as cofactor
T1 construct: purchased Viva (custom protein)

PRMT5 [2] = biological target: T1, PRMT5; test: PRMT5 biochemical IC50 assay with no cofactor
Source text: Table 1 indicates IC50 values (μM) against PRMT5 for exemplary compounds in the presence of SAM as cofactor, with no cofactor, and with MTA as cofactor, respectively (columns 4-6). […] Ki values can be calculated from the IC50 values as described in the Examples section. As detailed in the Examples section, for the assay performed in the presence of SAM, IC50=Ki×1.5 (Ki=IC50/1.5).

PRMT5 [3] = biological target: T1, PRMT5; test: PRMT5 biochemical IC50 assay with MTA as cofactor
[4] = system: HAP1 MTAP-intact cell line; test: SDMA in-cell western assay, HAP1 MTAP-intact; type: cell-based; details: Homo sapiens
How it was run: (§1)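 Compounds were tested in HAP1 cells differing only in MTAP status (endogenous expression versus null). Cellular SDMA levels were then measured by in-cell western, giving an IC50 in each background.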

[5] = system: HAP1 MTAP-deleted cell line; test: SDMA in-cell western assay, HAP1 MTAP-deleted; type: cell-based; details: for IC50: Homo sapiens; for MTAP intact/deleted ratio: IC50 ratio HAP1 MTAP-intact vs HAP1 MTAP-deleted, SDMA in-cell western
How it was run: as §1

[6] = system: HAP1 MTAP-deleted cell line; test: Viability assay, MTAP-deleted cell line; type: cell-based; details: Homo sapiens
Source text: Table 1 additionally indicates IC50 values in a viability assay for the MTAP-deleted cell line (column 10), indicating the effect of treatment with compound on cell survival.

[7] = PRMT5, SAM as cofactor, read-out: SAM IC50
[8] = PRMT5, no cofactor, read-out: No Cofactor/rel IC50
[9] = PRMT5, MTA as cofactor, read-out: MTA IC50
[10] = HAP1, SDMA in-cell western, HAP1 MTAP-intact, read-out: MTAP HAP1 intact IC50
[11] = HAP1, SDMA in-cell western, HAP1 MTAP-deleted, read-out: HAP1 MTAP deleted IC50
[12] = HAP1, viability assay, MTAP-deleted cell line, read-out: HAP1 MTAP deleted viability

T1 sequence (O14744 whole entry): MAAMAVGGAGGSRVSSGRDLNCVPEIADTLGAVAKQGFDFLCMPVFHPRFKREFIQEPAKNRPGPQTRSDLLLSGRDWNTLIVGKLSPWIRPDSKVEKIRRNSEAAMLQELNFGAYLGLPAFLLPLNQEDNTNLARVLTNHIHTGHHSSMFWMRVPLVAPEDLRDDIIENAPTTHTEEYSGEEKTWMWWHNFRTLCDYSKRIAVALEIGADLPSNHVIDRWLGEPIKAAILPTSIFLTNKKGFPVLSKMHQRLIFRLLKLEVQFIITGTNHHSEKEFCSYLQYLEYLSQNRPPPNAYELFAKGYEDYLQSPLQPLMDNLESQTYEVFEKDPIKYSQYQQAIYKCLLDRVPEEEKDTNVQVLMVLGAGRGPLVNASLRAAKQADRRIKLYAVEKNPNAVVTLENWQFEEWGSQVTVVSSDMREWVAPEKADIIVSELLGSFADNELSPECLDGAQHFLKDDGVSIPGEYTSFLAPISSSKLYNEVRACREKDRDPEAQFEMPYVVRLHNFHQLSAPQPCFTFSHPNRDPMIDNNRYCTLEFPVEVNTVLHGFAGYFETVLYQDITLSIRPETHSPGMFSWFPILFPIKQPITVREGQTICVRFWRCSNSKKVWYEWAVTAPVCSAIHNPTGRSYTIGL
T1 sequence (Q9BQA1 whole entry partner): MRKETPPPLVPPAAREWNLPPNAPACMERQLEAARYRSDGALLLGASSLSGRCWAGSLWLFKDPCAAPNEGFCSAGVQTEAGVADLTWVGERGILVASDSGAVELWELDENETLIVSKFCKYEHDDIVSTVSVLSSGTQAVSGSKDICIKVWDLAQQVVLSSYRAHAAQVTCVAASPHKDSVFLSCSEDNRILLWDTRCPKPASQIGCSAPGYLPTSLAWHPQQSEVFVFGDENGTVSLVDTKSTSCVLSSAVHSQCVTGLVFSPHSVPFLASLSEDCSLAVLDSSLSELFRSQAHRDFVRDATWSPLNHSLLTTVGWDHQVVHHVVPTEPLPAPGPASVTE

| Compound | IC50 (PRMT5 [1]; [7]) [nM] | IC50 (PRMT5 [2]; [8]) [nM] | IC50 (PRMT5 [3]; [9]) [nM] | IC50 [4, 10] [nM] | IC50 [5, 11] [nM] | MTAP intact/deleted ratio [5] | IC50 [6, 12] [nM] | IC50 (PRMT5 [1]; SAM IC50, PRMT5, SAM as cofactor) [nM] | IC50 (PRMT5 [2]; No Cofactor/rel IC50, PRMT5, no cofactor) [nM] | IC50 (PRMT5 [3]; MTA IC50, PRMT5, MTA as cofactor) [nM] | IC50 ([4]; HAP1, read-out: MTAP HAP1 intact IC50) [nM] | IC50 ([5]; HAP1, read-out: HAP1 MTAP deleted IC50) [nM] | IC50 ([6]; HAP1, read-out: HAP1 MTAP deleted viability) [nM] |
| --- | --- | --- | --- | --- | --- | --- | --- | --- | --- | --- | --- | --- | --- |
| CCc1cc(NC(=O)C(=O)N2C[C@@H](C)CC[C@@H]2c2ccc(NC3CCN(C)CC3)cc2)cnc1N [Compound 1112, N-(6-Amino-5-ethyl-3-pyridyl)-2-[(2R,5S)-5-methyl-2-[4-[(1-methyl-4-piperidyl)amino]phenyl]-1-piperidyl]-2-oxo-acetamide] | 50 to 500 | < 50 | < 50 | 100 to 1000 | < 100 | A (an IC50 ratio greater than or equal to 10 fold) | < 1000 | – | – | – | – | – | – |
| Cc1cc(NC(=O)C(=O)N2C[C@@H](C)CC[C@@H]2c2ccc3sc(C4CCN(CCF)CC4)nc3c2)cnc1N [Compound 1114, N-(6-amino-5-methylpyridin-3-yl)-2-((2R,5S)-2-(2-(1-(2-fluoroethyl)piperidin-4-yl)benzo[d]thiazol-5-yl)-5-methylpiperidin-1-yl)-2-oxoacetamide] | < 50 | < 50 | < 50 | < 100 | < 100 | A (an IC50 ratio greater than or equal to 10 fold) | < 1000 | – | – | – | – | – | – |
| C[C@H]1CC[C@H](c2ccc3sc(C4CCN(C)CC4)nc3c2)N(C(=O)C(=O)Nc2cnc(N)c(C(F)(F)F)c2)C1 [Compound 1117, N-(6-amino-5-(trifluoromethyl)pyridin-3-yl)-2-((2R,5S)-5-methyl-2-(2-(1-methylpiperidin-4-yl)benzo[d]thiazol-5-yl)piperidin-1-yl)-2-oxoacetamide] | < 50 | < 50 | < 50 | 100 to 1000 | < 100 | A (an IC50 ratio greater than or equal to 10 fold) | < 1000 | – | – | – | – | – | – |
| CCc1cc(NC(=O)C(=O)N2C[C@@H](C)CC[C@@H]2c2ccc3sc(C4(OC)CCN(C)CC4)nc3c2)cnc1N [Compound 1118, N-(6-amino-5-ethylpyridin-3-yl)-2-((2R,5S)-2-(2-(4-methoxy-1-methylpiperidin-4-yl)benzo[d]thiazol-5-yl)-5-methylpiperidin-1-yl)-2-oxoacetamide] | – | – | – | – | – | A (an IC50 ratio greater than or equal to 10 fold) | – | < 50 | < 50 | < 50 | < 100 | < 100 | < 1000 |
| Cc1cc(NC(=O)C(=O)N2C[C@@H](C)CC[C@@H]2c2ccc3sc(C4CN(C)C4)nc3c2)cnc1C [Compound 1123, N-(5,6-dimethylpyridin-3-yl)-2-((2R,5S)-5-methyl-2-(2-(1-methylazetidin-3-yl)benzo[d]thiazol-5-yl)piperidin-1-yl)-2-oxoacetamide] | < 50 | < 50 | < 50 | 100 to 1000 | < 100 | A (an IC50 ratio greater than or equal to 10 fold) | < 1000 | – | – | – | – | – | – |
| CCc1cc(NC(=O)C(=O)N2C[C@@H](C)CC[C@@H]2c2ccc3sc(C4CCN(CCC(F)(F)F)CC4)nc3c2)cnc1N [Compound 1124, N-(6-amino-5-ethylpyridin-3-yl)-2-((2R,5S)-5-methyl-2-(2-(1-(3,3,3-trifluoropropyl)piperidin-4-yl)benzo[d]thiazol-5-yl)piperidin-1-yl)-2-oxoacetamide] | 50 to 500 | < 50 | < 50 | < 100 | < 100 | B (an IC50 ratio greater than or equal to 3 fold but lower than 10 fold) | < 1000 | – | – | – | – | – | – |
| CCc1cc(NC(=O)C(=O)N2C[C@@H](C)CC[C@@H]2c2ccc3sc([C@H]4CCN(C)C(C)(C)C4)nc3c2)cnc1N [Compound 1125, N-(6-amino-5-ethylpyridin-3-yl)-2-((2R,5S)-5-methyl-2-(2-(1,2,2-trimethylpiperidin-4-yl)benzo[d]thiazol-5-yl)piperidin-1-yl)-2-oxoacetamide] | < 50 | < 50 | < 50 | < 100 | < 100 | A (an IC50 ratio greater than or equal to 10 fold) | < 1000 | – | – | – | – | – | – |
| CCc1cc(NC(=O)C(=O)N2C[C@@H](C)CC[C@@H]2c2ccc3sc([C@@H]4CN(C)CCO4)nc3c2)cnc1N [Compound 1134, N-(6-amino-5-ethyl-3-pyridyl)-2-oxo-2-[(2R,5S)-5-methyl-2-[2-[(2S)-4-methylmorpholin-2-yl]-1,3-benzothiazol-5-yl]-1-piperidyl]acetamide] | 50 to 500 | < 50 | < 50 | < 100 | < 100 | A (an IC50 ratio greater than or equal to 10 fold) | < 1000 | – | – | – | – | – | – |
| Cc1cc(NC(=O)C(=O)N2C[C@@H](C)CC[C@@H]2c2ccc3sc(C4CCN(C)CC4)nc3c2)cnc1C [Compound 1137, N-(5,6-dimethylpyridin-3-yl)-2-((2R,5S)-5-methyl-2-(2-(1-methylpiperidin-4-yl)benzo[d]thiazol-5-yl)piperidin-1-yl)-2-oxoacetamide] | < 50 | < 50 | < 50 | < 100 | < 100 | A (an IC50 ratio greater than or equal to 10 fold) | < 1000 | – | – | – | – | – | – |
| CCc1cc(NC(=O)C(=O)N2C[C@@H](C)CC[C@@H]2c2ccc3sc([C@@H]4C[C@H]5CN(C)C[C@H]54)nc3c2)cnc1N [Compound 1147, N-(6-amino-5-ethylpyridin-3-yl)-2-((5S)-5-methyl-2-(2-(3-methyl-3-azabicyclo[3.2.0]heptan-6-yl)benzo[d]thiazol-5-yl)piperidin-1-yl)-2-oxoacetamide] | < 50 | < 50 | < 50 | < 100 | < 100 | A (an IC50 ratio greater than or equal to 10 fold) | < 1000 | – | – | – | – | – | – |
| CCc1cc(NC(=O)C(=O)N2C[C@@H](C)CC[C@@H]2c2ccc3sc(C4CN(C)C4)nc3c2)cnc1N [Compound 1151, N-(6-amino-5-ethylpyridin-3-yl)-2-((2R,5S)-5-methyl-2-(2-(1-methylazetidin-3-yl)benzo[d]thiazol-5-yl)piperidin-1-yl)-2-oxoacetamide] | < 50 | < 50 | < 50 | < 100 | < 100 | A (an IC50 ratio greater than or equal to 10 fold) | < 1000 | – | – | – | – | – | – |
| CCc1cc(NC(=O)C(=O)N2C[C@@H](C)CC[C@@H]2c2ccc3sc(CO)nc3c2)cnc1N [Compound 1152, N-(6-amino-5-ethylpyridin-3-yl)-2-((2R,5S)-2-(2-(hydroxymethyl)benzo[d]thiazol-5-yl)-5-methylpiperidin-1-yl)-2-oxoacetamide] | 50 to 500 | < 50 | < 50 | 100 to 1000 | < 100 | A (an IC50 ratio greater than or equal to 10 fold) | < 1000 | – | – | – | – | – | – |
| COc1ncc(NC(=O)C(=O)N2C[C@@H](C)CC[C@@H]2c2ccc3sc(C4(CN(C)C)COC4)nc3c2)cc1C(N)=O [Compound 1155, 5-(2-((2R,5S)-2-(2-(3-((dimethylamino)methyl)oxetan-3-yl)benzo[d]thiazol-5-yl)-5-methylpiperidin-1-yl)-2-oxoacetamido)-2-methoxynicotinamide] | < 50 | < 50 | < 50 | 100 to 1000 | < 100 | A (an IC50 ratio greater than or equal to 10 fold) | < 1000 | – | – | – | – | – | – |
